ChEMBL document CHEMBL3044888, “Fungicidal activity of indole derivatives against some plant pathogenic fungi” (J Pestic Sci, 2010)
Converted amounts (≈) assume the structure as drawn.

What was measured:
Macrophomina phaseolina [1] = experiment: In vivo effect on peroxidase activity in Macrophomina phaseoli assessed as non-reducing sugar content per gram of dry hyphal at 1 times of IC50 concentration (reference value: 12 +/- 0.8 mg/g of dry weight); format: functional
[2] = test system: Globisporangium debaryanum; experiment: In vivo effect on peroxidase activity in Pythium debaryanum assessed as DNA content at 1 times of IC50 concentration (reference value: 31 +/- 0.8 mg/l); format: functional
Fusarium culmorum [3] = experiment: In vivo effect on peroxidase activity in Fusarium culmorum assessed as RNA content at 0.5 times of IC50 concentration (reference value: 51.5 +/- 1.5 mg/l); format: functional
[4] = test system: Globisporangium debaryanum; experiment: Inhibition of peroxidase activity in Pythium debaryanum at 0.25 times of IC50 concentration
Rhizoctonia solani [5] = experiment: In vivo effect on peroxidase activity in Rhizoctonia solani assessed as total soluble sugar content per gram of dry hyphal at 0.25 times of IC50 concentration (reference value: 20.1 +/- 0.8 mg/g of dry weight); format: functional
Fusarium culmorum [6] = experiment: Inhibition of peroxidase activity in Fusarium culmorum at 0.25 times of IC50 concentration
Macrophomina phaseolina [7] = experiment: In vivo effect on peroxidase activity in Macrophomina phaseoli assessed as total soluble sugar content per gram of dry hyphal at 0.1 times of IC50 concentration (reference value: 19.3 +/- 0.7 mg/g of dry weight); format: functional
Macrophomina phaseolina [8] = experiment: In vivo effect on peroxidase activity in Macrophomina phaseoli assessed as non-reducing sugar content per gram of dry hyphal at 0.5 times of IC50 concentration (reference value: 12 +/- 0.8 mg/g of dry weight); format: functional
[9] = test system: Globisporangium debaryanum; experiment: In vivo effect on peroxidase activity in Pythium debaryanum assessed as RNA content at 0.5 times of IC50 concentration (reference value: 32.2 +/- 0.7 mg/l); format: functional
Macrophomina phaseolina [10] = experiment: In vivo effect on peroxidase activity in Macrophomina phaseoli assessed as reduced sugar content per gram of dry hyphal at 1 times of IC50 concentration (reference value: 7.3 +/- 0.5 mg/g of dry weight); format: functional
Macrophomina phaseolina [11] = experiment: In vivo effect on peroxidase activity in Macrophomina phaseoli assessed as RNA content at 0.5 times of IC50 concentration (reference value: 16.1 +/- 0.4 mg/l); format: functional
Macrophomina phaseolina [12] = experiment: In vivo effect on peroxidase activity in Macrophomina phaseoli assessed as RNA content at 1 times of IC50 concentration (reference value: 16.1 +/- 0.4 mg/l); format: functional
Rhizoctonia solani [13] = experiment: In vivo effect on peroxidase activity in Rhizoctonia solani assessed as DNA content at 2 times of IC50 concentration (reference value: 24 +/- 0.7 mg/l); format: functional
Fusarium culmorum [14] = experiment: In vivo effect on peroxidase activity in Fusarium culmorum assessed as RNA content at 2 times of IC50 concentration (reference value: 51.5 +/- 1.5 mg/l); format: functional
Rhizoctonia solani [15] = experiment: In vivo effect on peroxidase activity in Rhizoctonia solani assessed as total soluble sugar content per gram of dry hyphal at 0.5 times of IC50 concentration (reference value: 20.1 +/- 0.8 mg/g of dry weight); format: functional
Rhizoctonia solani [16] = experiment: In vivo effect on peroxidase activity in Rhizoctonia solani assessed as reduced sugar content per gram of dry hyphal at 1 times of IC50 concentration (reference value: 17.3 +/- 1 mg/g of dry weight); format: functional
Rhizoctonia solani [17] = experiment: In vivo effect on peroxidase activity in Rhizoctonia solani assessed as DNA content at 0.25 times of IC50 concentration (reference value: 24 +/- 0.7 mg/l); format: functional
Fusarium culmorum [18] = experiment: In vivo effect on peroxidase activity in Fusarium culmorum assessed as DNA content at 1 times of IC50 concentration (reference value: 49.5 +/- 1.6 mg/l); format: functional
[19] = test system: Globisporangium debaryanum; experiment: In vivo effect on peroxidase activity in Pythium debaryanum assessed as RNA content at 1 times of IC50 concentration (reference value: 32.2 +/- 0.7 mg/l); format: functional
Macrophomina phaseolina [20] = experiment: In vivo effect on peroxidase activity in Macrophomina phaseoli assessed as reduced sugar content per gram of dry hyphal at 0.1 times of IC50 concentration (reference value: 7.3 +/- 0.5 mg/g of dry weight); format: functional
Fusarium culmorum [21] = experiment: In vivo effect on peroxidase activity in Fusarium culmorum assessed as RNA content at 1 times of IC50 concentration (reference value: 51.5 +/- 1.5 mg/l); format: functional
Rhizoctonia solani [22] = experiment: In vivo effect on peroxidase activity in Rhizoctonia solani assessed as non-reducing sugar content per gram of dry hyphal at 0.5 times of IC50 concentration (reference value: 2.8 +/- 0.2 mg/g of dry weight); format: functional
Rhizoctonia solani [23] = experiment: Fungicidal activity against Rhizoctonia solani assessed as inhibition of hyphal growth by radial growth test; format: functional, organism-based
Fusarium culmorum [24] = experiment: In vivo effect on peroxidase activity in Fusarium culmorum assessed as RNA content at 0.25 times of IC50 concentration (reference value: 51.5 +/- 1.5 mg/l); format: functional
Macrophomina phaseolina [25] = experiment: In vivo effect on peroxidase activity in Macrophomina phaseoli assessed as RNA content at 0.1 times of IC50 concentration (reference value: 16.1 +/- 0.4 mg/l); format: functional
[26] = test system: Globisporangium debaryanum; experiment: In vivo effect on peroxidase activity in Pythium debaryanum assessed as DNA content at 0.1 times of IC50 concentration (reference value: 31 +/- 0.8 mg/l); format: functional
[27] = test system: Globisporangium debaryanum; experiment: Inhibition of peroxidase activity in Pythium debaryanum at 0.5 times of IC50 concentration
Macrophomina phaseolina [28] = experiment: In vivo effect on peroxidase activity in Macrophomina phaseoli assessed as DNA content at 2 times of IC50 concentration (reference value: 15.5 +/- 0.5 mg/l); format: functional
[29] = Inhibition of polyphenoloxidase activity in Fusarium culmorum
Rhizoctonia solani [30] = experiment: In vivo effect on peroxidase activity in Rhizoctonia solani assessed as DNA content at 1 times of IC50 concentration (reference value: 24 +/- 0.7 mg/l); format: functional
Rhizoctonia solani [31] = experiment: In vivo effect on peroxidase activity in Rhizoctonia solani assessed as non-reducing sugar content per gram of dry hyphal at 1 times of IC50 concentration (reference value: 2.8 +/- 0.2 mg/g of dry weight); format: functional
Rhizoctonia solani [32] = experiment: In vivo effect on peroxidase activity in Rhizoctonia solani assessed as total soluble sugar content per gram of dry hyphal at 1 times of IC50 concentration (reference value: 20.1 +/- 0.8 mg/g of dry weight); format: functional
[33] = test system: Globisporangium debaryanum; experiment: In vivo effect on peroxidase activity in Pythium debaryanum assessed as RNA content at 2 times of IC50 concentration (reference value: 32.2 +/- 0.7 mg/l); format: functional
Macrophomina phaseolina [34] = experiment: In vivo effect on peroxidase activity in Macrophomina phaseoli assessed as DNA content at 0.1 times of IC50 concentration (reference value: 15.5 +/- 0.5 mg/l); format: functional
[35] = test system: Globisporangium debaryanum; experiment: In vivo effect on peroxidase activity in Pythium debaryanum assessed as DNA content at 2 times of IC50 concentration (reference value: 31 +/- 0.8 mg/l); format: functional
Macrophomina phaseolina [36] = experiment: In vivo effect on peroxidase activity in Macrophomina phaseoli assessed as non-reducing sugar content per gram of dry hyphal at 0.25 times of IC50 concentration (reference value: 12 +/- 0.8 mg/g of dry weight); format: functional

Row | Compound | Activity (Macrophomina phaseolina [1]) | Activity [2] | Activity (Fusarium culmorum [3]) | inhibition [4] | Activity (Rhizoctonia solani [5]) | inhibition (Fusarium culmorum [6]) | Activity (Macrophomina phaseolina [7]) | Activity (Macrophomina phaseolina [8]) | Activity [9] | Activity (Macrophomina phaseolina [10]) | Activity (Macrophomina phaseolina [11]) | Activity (Macrophomina phaseolina [12]) | Activity (Rhizoctonia solani [13]) | Activity (Fusarium culmorum [14]) | Activity (Rhizoctonia solani [15]) | Activity (Rhizoctonia solani [16]) | Activity (Rhizoctonia solani [17]) | Activity (Fusarium culmorum [18]) | Activity [19] | Activity (Macrophomina phaseolina [20]) | other results
1 | c1ccc(-c2cc3ccccc3[nH]2)cc1 [2-PHENYL-1H-INDOLE] | 1.3 mg | 29.4 mg/L | 18.7 mg/L | 3.7% | 71.8 mg | 26.2% | 8.7 mg | 1.4 mg | 11.4 mg/L | 5.8 mg | 8.3 mg/L | 6.3 mg/L | 27 mg/L | 24.7 mg/L | 19.1 mg | 7.7 mg | 28.9 mg/L | 25.3 mg/L | 30.6 mg/L | 6.3 mg | Activity (Fusarium culmorum [21]): 26.3 mg/L; Activity (Rhizoctonia solani [22]): 3.1 mg; IC50 (Rhizoctonia solani [23]): 34.6 µg/mL (≈ 179 µM); Activity (Fusarium culmorum [24]): 24.3 mg/L; Activity (Macrophomina phaseolina [25]): 6.7 mg/L; Activity [26]: 30.9 mg/L; inhibition [27]: 0%; Activity (Macrophomina phaseolina [28]): 5.7 mg/L; IC50 [29]: 87.6 µg/mL (≈ 453 µM); Activity (Rhizoctonia solani [30]): 30.9 mg/L; Activity (Rhizoctonia solani [31]): 2.2 mg; Activity (Rhizoctonia solani [32]): 9.8 mg; Activity [33]: 24.2 mg/L; Activity (Macrophomina phaseolina [34]): 6.4 mg/L; Activity [35]: 23.3 mg/L; Activity (Macrophomina phaseolina [36]): 5.1 mg
2 | CC(=O)n1c(-c2ccccc2)cc2ccccc21 | 8.9 mg | 17.5 mg/L | 29.2 mg/L | 3% | 10.8 mg | 23.7% | 4.2 mg | 10.2 mg | 11.8 mg/L | 25.8 mg | 8.6 mg/L | 8.5 mg/L | 34.7 mg/L | 20.3 mg/L | 6 mg | 2.6 mg | 25.2 mg/L | 27.2 mg/L | 18.2 mg/L | 2.5 mg | Activity (Fusarium culmorum [21]): 28.3 mg/L; Activity (Rhizoctonia solani [22]): 0.4 mg; IC50 (Rhizoctonia solani [23]): 37.5 µg/mL (≈ 159 µM); Activity (Fusarium culmorum [24]): 31.1 mg/L; Activity (Macrophomina phaseolina [25]): 12.9 mg/L; Activity [26]: 26 mg/L; inhibition [27]: 1.3%; Activity (Macrophomina phaseolina [28]): 6.5 mg/L; IC50 [29]: 41.5 µg/mL (≈ 176 µM); Activity (Rhizoctonia solani [30]): 31.4 mg/L; Activity (Rhizoctonia solani [31]): 0.2 mg; Activity (Rhizoctonia solani [32]): 2.8 mg; Activity [33]: 22.5 mg/L; Activity (Macrophomina phaseolina [34]): 11.7 mg/L; Activity [35]: 21.6 mg/L; Activity (Macrophomina phaseolina [36]): 7.4 mg
